From patent publication US4315017A, “Triazole derivatives” (priority 1978, dated 1982)
“And” between values parts separate entries of the source, which are not always exact repeats. Identical values can stand only once.

What was measured:
Type in all cases: in vivo
[1] = tested on: oriental cockroaches (Blatta orientalis); assay: Synergistic action on oriental cockroaches, treated jar bottom; conditions: single substance; kill rate after 48 hours
Experimental: Synergistic action on oriental cockroaches (Blatta orientalis)
After the solvent has evaporated, 5 adult cockroaches (Blatta orientalis) are placed in each jar, and the kill rate is determined after 48 hours.
The application rates are in logarithmic progression and permit a dose-effect curve to be drawn; the LD50 is determined graphically and serves as a basis for assessment.

[2] = tested on: granery weevils (Sitophilus granarius); assay: Synergistic action on granary weevils (treated Petri dishes); conditions: single substance; 4 hours exposure, kill rate after 24 hours
Experimental: Synergistic action on granery weevils (Sitophilus granarius)
Petri dishes 10 cm in diameter are lined with acetonic solutions of the active ingredients. After the solvent has evaporated, 50 granary weevils are placed in each dish.
After 4 hours, the weevils are transferred to untreated vessels. The kill rate is determined after 24 hours, by counting how many weevils are, after this period has elapsed, capable of leaving an untreated cardboard dish (40 mm in diameter, 10 mm high) within 60 minutes.

[3] = tested on: houseflies (Musca domestica); assay: Synergistic action on houseflies; continuous contact (Petri dish); conditions: single substance; kill rate after 4 hours
Experimental: Synergistic action on houseflies (Musca domestica); continuous contact
Both covers and bottoms of Petri dishes 10 cm in diameter are lined with a total per dish of 2 ml of acetonic solutions of the active ingredients. After the solvent has evaporated (about 30 mins.), 10 flies are introduced into each dish.
The kill rate is determined after 4 hours and the LD50 is determined graphically.

[4] = tested on: houseflies (Musca domestica); assay: Synergistic action on houseflies, dip experiment; conditions: single substance; active ingredient concentration in %
Experimental: Synergistic action on houseflies (Musca domestica; dip experiment)
100 ml of aqueous active ingredient formulations (active ingredient concentration in %) is poured over 20 adult houseflies (Musca domestica) on a filter in a nutsch (15 cm in diameter). A gauze lid prevents the animals from surfacing during treatment. After 5 seconds the formulation is filtered off and the flies are transferred to clean Petri dishes (10 cm in diameter) on the bottom of which a round filter paper has been placed.
The animals in supine position are counted after 4 and 24 hours.

[5] = tested on: houseflies (Musca domestica); assay: Contact action on houseflies (application to ventral abdomen); conditions: single substance; kill rate after 4 hours
Experimental: Contact action on houseflies (Musca domestica)
1 μl of the active ingredient dissolved in acetone is administered to the ventral abdomen of 4-day old imagoes under slight CO2 narcosis. 20 animals treated in the same way are then placed in a cellophane bag having a volume of approximately 500 ml.
After 4 hours the kill rate is determined, a dose-mortality curve is drawn from the different concentrations, and the LD50 is worked out.

| Compound | LD 50 [1] | LD 50 [2] | LD 50 [3] | LD 50 after 4 hours [4] | LD 50 after 24 hours [4] | LD 50 [5] |
| --- | --- | --- | --- | --- | --- | --- |
| C=C(Cn1cncn1)c1ccccc1 [No. 8] | 9.0 mg | > 2 mg | – | – | – | – |
| Cc1ccc(Cn2cncn2)cc1 [No. 9] | > 2.0 mg | > 4 mg | – | – | – | – |
| ClC(Cn1cncn1)c1ccccc1 (centres unmarked) [No. 2] | > 5.0 mg | – | 0.2 mg | > 0.2% | 0.1% | – |
| Cc1nc(N(C)C)nc(OC(=O)N(C)C)c1C [Pirimicarb, 2-dimethylamino-5,6-dimethyl-4-pyrimidinyl-N,N-dimethylcarbamate, reference compound] | > 30 mg | – | – | 0.05% | 0.04% | – |
| C=CCC1=C(C)C(OC(=O)C2C(C=C(C)C)C2(C)C)CC1=O (mixture of isomers) [Allethrin, DL-2-allyl-3-methylcyclopenten-2-on-(1)-yl-(4)-DL-cis,trans-chrysanthemate, reference compound] | 0.11 mg | – | – | – | – | – |
| CC(C)(C)c1ccc(Cn2cncn2)cc1 [No. 11] | > 10.0 mg | > 2 mg | – | – | – | – |
| ClC(Cn1cncn1)c1ccccc1 (centres unmarked) [No. 1] | > 5.0 mg | > 2 mg and > 1 mg | > 2.0 mg | 0.085% | 0.05% | – |
| c1ccc(CCCn2cncn2)cc1 [No. 5] | > 2.0 mg | > 2 mg | – | > 0.2% | 0.05% | > 10 μg/fly |
| CCc1ccc(Cn2cncn2)cc1 [No. 10] | > 2.0 mg | > 2 mg | – | – | – | – |
| Fc1ccc(C=Cn2cncn2)cc1 [No. 4] | > 5.0 mg | – | > 2.0 mg | – | – | – |
| Clc1ccc(C=Cn2cncn2)c(Cl)c1 [No. 3] | > 5.0 mg | – | – | 0.2% | 0.05% | – |
| CC(c1ccccc1)n1cncn1 (centres unmarked) [No. 7] | > 2.0 mg | – | – | – | – | – |
| C(=Cc1ccccc1)Cn1cncn1 [No. 6] | 9.0 mg | > 2 mg | – | > 0.2% | 0.07% | – |
| 2,5-diethylphenyl-N-methylcarbamate [Fenethcarb, reference compound] | 0.45 mg | – | – | – | – | – |
| CCOC(=O)CC(SP(=S)(OC)OC)C(=O)OCC (centres unmarked) [Malathion, reference compound] | 0.12 mg | – | – | – | – | – |
